In ChEMBL document CHEMBL1124138, “Synthesis and analgesic activity of pemedolac (cis-1-ethyl-1,3,4,9-tetrahydro-4-(phenylmethyl)pyrano[3,4-b]ind ole-1- acetic acid)” (1988):

Columns and labels:
Type in all cases: functional
[1] = system: Mus musculus; experiment: Percentage inhibition of writhing in mouse at 25 mg/kg (PBQ writhing test)
[2] = species on record: Rattus norvegicus; experiment: Dose causing an analgesic effect in 50% of rats (Randall-Selitto assay)
[3] = species on record: Mus musculus; experiment: Dose causing 50% inhibition of writhing in mouse (PBQ writhing test)
[4] = system: Rattus norvegicus; experiment: Percentage analgesic effect of rats at 10 mg/kg (Randall-Selitto assay)
[5] = system: Mus musculus; experiment: Percentage inhibition of writhing in mouse at 30 mg/kg (PBQ writhing test)
[6] = Ratio of carrageenan paw edema ED50/Randall-Sellitto ED50
[7] = Ratio of acute ulcerogenesis UD50/Randall-Selitto ED50
[8] = species on record: Rattus norvegicus; experiment: Dose at which 50% of the rats had a positive gastrointestinal irritation / ulceration on a quantal all-or-none basis
[9] = system: Rattus norvegicus; experiment: Dose causing 50% inhibition of edema by carrageenan paw edema assay
[10] = system: Rattus norvegicus; experiment: Dose causing 50% inhibition of edema by carrageenan paw edema assay.
[11] = species on record: Rattus norvegicus; experiment: Dose at which 50% of the rats had a positive gastrointestinal irritation / ulceration on a quantal all-or-none basis.
[12] = Rattus norvegicus, read-out: ED50

Row | Compound | Ratio [6] | Safety index [7] | ED50 ([3]; Mus musculus, read-out: ED50) | ED50 [2, 12] | other results
1 | CC[C@@]1(CC(=O)O)OC[C@@H](Cc2ccccc2)c2c1[nH]c1ccccc21 | – | – | – | – | inhibition in vivo at 25 mg/kg [1]: 19%
2 | CCC1(CC(=O)O)OCC(Cc2ccccc2)c2c1[nH]c1ccccc21 (single isomer, unassigned; (+)) [PEMEDOLAC] | – | – | – | – | ED50 [2]: 0.04 mg/kg; ED50 [3]: 1.8 mg/kg
3 | CCC1(CC(=O)O)OCC(Cc2ccccc2)c2c1[nH]c1ccccc21 (single isomer, unassigned; (-)) [PEMEDOLAC] | – | – | – | – | Effect [4]: 40%; inhibition in vivo at 30 mg/kg [5]: 15%
4 | CCC1(CC(=O)O)OCC(Cc2ccccc2)c2c1[nH]c1ccccc21 (stereo in doubt) | 33000 | > 35000 | – | – | –
5 | CCC1(CC(=O)O)OCC(Cc2ccccc2)c2c1[nH]c1ccccc21 (stereo in doubt) [PEMEDOLAC] | – | – | 2 mg/kg | – | ED50 [2]: 0.003 mg/kg; UD50 [8]: 107 mg/kg; ED50 [9]: ~100 mg/kg
6 | CCc1cccc2c3c([nH]c12)C(CC)(CC(=O)O)OCC3 (stereo not drawn) [ETODOLAC] | 5.1 | 13 | – | 4.5 mg/kg | UD50 [8]: 58 mg/kg; ED50 [9]: 23 mg/kg
7 | CC(C)Cc1ccc(C(C)C(=O)O)cc1 (stereo not drawn) [IBUPROFEN] | 0.3 | 2.3 | 32.4 mg/kg | 64.5 mg/kg | ED50 [10]: 21 mg/kg; UD50 [11]: 150 mg/kg
8 | CN1C(C(=O)Nc2ccccn2)=C(O)c2ccccc2S1(=O)=O [PIROXICAM] | 3.7 | 17 | 3.4 mg/kg | 0.35 mg/kg | ED50 [10]: 1.3 mg/kg; UD50 [11]: 6 mg/kg
